# Results as given in patent US20120208204A1, “Compositions and Methods for Inhibiting Tumor Growth” (The Brigham and Women's Hospital, Inc., priority 2009, published 2012).
# Tested on: SGK2
# Experiment: Inhibition of kinase activity by SGK2 inhibitory compounds, single concentration
# Format: biochemical
# Conditions: 10 μM compound
# Text: A library of compounds was screened for inhibitors of SGK2 and PAK3 activity by assaying phosphorylation of a generic peptide substrate either directly; or indirectly by inhibiting upstream kinase PDK1 from activating the enzyme in vitro. In both cases, the phosphorylated substrate was detected using a specific anti-phospho peptide antibody that is coupled with Eu^3+ Cryptate and XL665 conjugated with streptavidin. […] All initial hits were re-assayed as a dose response series with eight 3-fold dilutions and resulting final concentrations ranged from 0.9 nM to 20 μM.
row,SMILES,% Inhibition at 10 μM [%]
1,Oc1cc(O)c2c(c1)O[C@@]1(c3ccc(O)c(O)c3)Oc3cc(O)c4c(c3[C@@H]2[C@H]1O)O[C@H](c1ccc(O)c(O)c1)[C@H](O)[C@H]4c1c(O)cc(O)c2c1O[C@H](c1ccc(O)c(O)c1)[C@H](O)C2 [LDN-0022358],93
2,O=C(OC1Cc2c(O)cc(O)cc2OC1c1cc(O)c(O)c(O)c1)c1cc(O)c(O)c(O)c1 (stereo not drawn) [LDN-0022369],92
3,CC1=C(C(=O)OCc2ccc3c(c2)OCO3)C(c2cccc(Oc3ccccc3)c2)NC(=O)N1 (stereo not drawn) [LDN-0025562],60
4,O=[N+]([O-])c1c(Cl)cc(O)c2c1C1C=CCC1C(c1ccccc1)N2 (stereo not drawn) [LDN-0026088],70
5,N#Cc1c(N)nc(SCC(=O)c2ccc(O)c(O)c2)c(C#N)c1-c1ccc(O)cc1 [LDN-0028574],91
6,CCOC(=O)C1C(=O)NC(SCC(=O)Nc2ccc(Br)cc2)=C(C#N)C1c1ccccc1OCC (stereo not drawn) [LDN-0028584],68
7,N#Cc1c(N)nc(SCC(=O)Nc2ccc([N+](=O)[O-])c3ccccc23)c(C#N)c1-c1ccco1 [LDN-0028673],71
8,O=C(CSc1nnc(-c2ccco2)[nH]1)c1ccc(O)c(O)c1 [LDN-0031187],67
9,O=C(CSc1nnc(-c2ccncc2)[nH]1)c1ccc(O)c(O)c1 [LDN-0031199],68
10,CC(=O)Oc1ccc(C2Nc3c(C(=O)O)ccc([N+](=O)[O-])c3C3C=CCC32)cc1 (stereo not drawn) [LDN-0033447],65
11,O=C(C=Cc1ccco1)c1ccc2c(c1)C1C=CCC1C(c1ccc(Cl)cc1)N2 (stereo not drawn) [LDN-0033450],94
12,NS(=O)(=O)c1ccc(CCNC(=O)c2ccc3c(=O)n(Cc4ccco4)c(=S)[nH]c3c2)cc1 [LDN-0036137],74
13,O=C(NCCCN1CCCCCC1)c1ccc(Cn2c(=S)[nH]c3ccc(Br)cc3c2=O)cc1 [LDN-0036382],67
14,O=C(Nc1ccc(O)c(-c2nc3ccccc3s2)c1)c1cccc(N2C(=O)CCC2=O)c1 [LDN-0041592],74
15,Cc1cc2c3c(c(Br)cc(S(=O)(=O)O)c3n1)C(=O)c1ccccc1-2 [LDN-0042012],87
16,O=C(O)c1cc2c3c(c1)C1C=CCC1CN3CC1CC=CC21 (stereo not drawn) [LDN-0043107],73
17,CSc1ccc(-c2nc(-c3ccc(Sc4ccccc4)cc3)c(-c3ccccc3)[nH]2)cc1 [LDN-0044047],65

row,SMILES,% Inhibition at 10 μM [%]
1,Oc1ccc(-c2nc(-c3ccc4sc5ccccc5c4c3)c(-c3ccccc3)[nH]2)cc1 [LDN-0044883],64
2,Oc1ccc(-c2nc(-c3ccc4sc5ccccc5c4c3)c(-c3ccccc3)[nH]2)cc1O [LDN-0044885],70
3,COc1cccc(C2Nc3cccc4cccc(c34)N2)c1OC [LDN-0045022],73
4,Oc1cccc(C2Nc3cccc4cccc(c34)N2)c1 [LDN-0045024],90
5,CCN(CC)c1ccc(C2Nc3cccc4cccc(c34)N2)c(O)c1 [LDN-0045032],68
6,Oc1ccccc1C1Nc2cccc3cccc(c23)N1 [LDN-0045035],89
7,Oc1ccc(C2Nc3cccc4cccc(c34)N2)c(O)c1 [LDN-0045038],91
8,C=CCc1cccc(C2Nc3cccc4cccc(c34)N2)c1O [LDN-0045040],89
9,CN(C)c1ccc(C2=Nc3cccc4cccc(c34)N2)cc1 [LDN-0047445],79
10,N#CC1=C(NC(=O)Cc2ccccc2)c2ccccc2CC12CCCCC2 [LDN-0047862],95
11,c1ccc(Sc2ccc(-c3nc(-c4ccccc4)[nH]c3-c3ccccc3)cc2)cc1 [LDN-0048956],68
12,C1=CC2c3cccc4c3N(CC2C1)CC1CC=CC41 (stereo not drawn) [LDN-0050317],69
13,O=c1c(O)c(-c2ccc(O)c(O)c2)oc2cc(O)cc(O)c12 [LDN-0052529],89
14,O=c1c(O)c(-c2ccc(O)c(O)c2)oc2cc(O)ccc12 [LDN-0058389],76
15,CN(C)c1ccc(NC(=O)Nc2cccs2)cc1 [LDN-0058882],61
16,O=c1oc2cc(Br)c(O)c(Br)c2s1 [LDN-0060240],94
17,CNC(=O)Oc1c(Br)cc2sc(=O)oc2c1Br [LDN-0072860],72

# Continued, values first:
row,% Inhibition at 10 μM [%],SMILES
1,71,Nc1ccc2[nH]c(C=Cc3ccccc3)nc2c1 [LDN-0060426]
2,67,CN(C)c1ccc(C=Cc2nc3cc(N)ccc3[nH]2)cc1 [LDN-0060496]
3,68,Nc1ccc2[nH]c(C=Cc3ccc(Cl)cc3)nc2c1 [LDN-0060498]
4,72,CN(C)c1ccc(-c2nc3cc(N)ccc3[nH]2)cc1 [LDN-0060537]
5,93,O=c1oc2c(Br)c(O)c(Br)cc2s1 [LDN-0060733]
6,92,O=C(O)C1Nc2ccc(Br)cc2C2C=CCC12 (stereo not drawn) [LDN-0061702]
7,90,Cc1ccc(C)n1-c1ccc(O)c(C(=O)O)c1 [LDN-0062564]
8,95,O=C(O)C1Nc2c(O)cccc2C2C=CCC12 (stereo not drawn) [LDN-0062847]
9,98,O=c1cc(-c2ccccc2)c2ccc(O)c(O)c2o1 [LDN-0063260]
10,50,Nc1ccc2oc3ccc(N)cc3c(=O)c2c1 [LDN-0063356]
11,85,Oc1ccccc1-c1cc(-c2ccco2)[nH]n1 [LDN-0064229]
12,52,CN1c2ccccc2Sc2cc(N)ccc21 [LDN-0065927]
13,78,Nc1ccc2[nH]c(-c3ccco3)nc2c1 [LDN-0065931]
14,84,CC(C)COC(=O)c1ccc2c(c1)C1C=CCC1C(C(=O)O)N2 (stereo not drawn) [LDN-0068134]
15,80,N#Cc1c(-c2ccco2)cc(-c2cccs2)nc1N [LDN-0071067]
16,88,Cc1c2ccccc2nc2c(F)c(NCCO)c(F)c(F)c12 [LDN-0071563]
17,88,Cc1c2ccccc2nc2c(F)c(NC(C)C)c(F)c(F)c12 [LDN-0071567]
18,64,COc1cccc(=O)c2c(C)n(CC(=O)c3ccccc3)c(C)c12 [LDN-0071595]
19,65,Oc1ccc(-c2csc(NCc3ccco3)n2)cc1 [LDN-0071858]
20,70,CN(C)c1ccc2nc(SCC(=O)c3ccccc3)sc2c1 [LDN-0073108]
21,74,Nc1ccc2c(c1)OC1(CCCC1)O2 [LDN-0073507]
22,67,CCCc1cc2c(cc1N)OCO2 [LDN-0073854]
23,67,Oc1c(Cl)cc(Cl)c2c1NCCC2 [LDN-0073973]
24,73,O=C1CC(N2CCCCC2)C=C1Nc1ccc(F)cc1 (stereo not drawn) [LDN-0074168]
25,67,CCC(=O)N1CCc2cc(Br)cc(S(=O)(=O)Nc3ccc(Br)cc3)c21 [LDN-0074939]
26,71,CC#CC1=C(CO)C(=O)C2OC2C1=O (stereo not drawn) [LDN-0080086]
27,62,Oc1ccc(N=Cc2ccc[nH]2)cc1N=Cc1ccc[nH]1 [LDN-0085170]
28,68,Oc1ccc(Cl)cc1-c1cc(-c2ccco2)n[nH]1 [LDN-0086824]
29,67,Cc1sc(NC(=O)COc2cccc(F)c2)c(C#N)c1C [LDN-0086947]
